Assay results: patent US6218157A, “Haloacetoacetate reductase, method for producing said enzyme, and method for producing alcohols using said enzyme” (priority 1997, dated 2001)
Read-outs that look alike come from different tables or passages of the source.

Experiments:
Assay type in all cases: biochemical
[1] = target: T1, ethyl 4-chloroacetoacetate reductase (Kluyveromyces lactis, UniProt Q6CT25); test: Substrate specificity: reducing activity of the enzyme on various ketones and aldehydes; conditions: for Relative activity: coenzyme NADPH, ethyl 4-chloroacetoacetate-reducing activity = 100%; for Reducing activity on substrate (in words): NADPH as electron donor
T1 construct: almost single band, about 190 kDa on SDS-PAGE
T1 sequence (Q6CT25 1-1893): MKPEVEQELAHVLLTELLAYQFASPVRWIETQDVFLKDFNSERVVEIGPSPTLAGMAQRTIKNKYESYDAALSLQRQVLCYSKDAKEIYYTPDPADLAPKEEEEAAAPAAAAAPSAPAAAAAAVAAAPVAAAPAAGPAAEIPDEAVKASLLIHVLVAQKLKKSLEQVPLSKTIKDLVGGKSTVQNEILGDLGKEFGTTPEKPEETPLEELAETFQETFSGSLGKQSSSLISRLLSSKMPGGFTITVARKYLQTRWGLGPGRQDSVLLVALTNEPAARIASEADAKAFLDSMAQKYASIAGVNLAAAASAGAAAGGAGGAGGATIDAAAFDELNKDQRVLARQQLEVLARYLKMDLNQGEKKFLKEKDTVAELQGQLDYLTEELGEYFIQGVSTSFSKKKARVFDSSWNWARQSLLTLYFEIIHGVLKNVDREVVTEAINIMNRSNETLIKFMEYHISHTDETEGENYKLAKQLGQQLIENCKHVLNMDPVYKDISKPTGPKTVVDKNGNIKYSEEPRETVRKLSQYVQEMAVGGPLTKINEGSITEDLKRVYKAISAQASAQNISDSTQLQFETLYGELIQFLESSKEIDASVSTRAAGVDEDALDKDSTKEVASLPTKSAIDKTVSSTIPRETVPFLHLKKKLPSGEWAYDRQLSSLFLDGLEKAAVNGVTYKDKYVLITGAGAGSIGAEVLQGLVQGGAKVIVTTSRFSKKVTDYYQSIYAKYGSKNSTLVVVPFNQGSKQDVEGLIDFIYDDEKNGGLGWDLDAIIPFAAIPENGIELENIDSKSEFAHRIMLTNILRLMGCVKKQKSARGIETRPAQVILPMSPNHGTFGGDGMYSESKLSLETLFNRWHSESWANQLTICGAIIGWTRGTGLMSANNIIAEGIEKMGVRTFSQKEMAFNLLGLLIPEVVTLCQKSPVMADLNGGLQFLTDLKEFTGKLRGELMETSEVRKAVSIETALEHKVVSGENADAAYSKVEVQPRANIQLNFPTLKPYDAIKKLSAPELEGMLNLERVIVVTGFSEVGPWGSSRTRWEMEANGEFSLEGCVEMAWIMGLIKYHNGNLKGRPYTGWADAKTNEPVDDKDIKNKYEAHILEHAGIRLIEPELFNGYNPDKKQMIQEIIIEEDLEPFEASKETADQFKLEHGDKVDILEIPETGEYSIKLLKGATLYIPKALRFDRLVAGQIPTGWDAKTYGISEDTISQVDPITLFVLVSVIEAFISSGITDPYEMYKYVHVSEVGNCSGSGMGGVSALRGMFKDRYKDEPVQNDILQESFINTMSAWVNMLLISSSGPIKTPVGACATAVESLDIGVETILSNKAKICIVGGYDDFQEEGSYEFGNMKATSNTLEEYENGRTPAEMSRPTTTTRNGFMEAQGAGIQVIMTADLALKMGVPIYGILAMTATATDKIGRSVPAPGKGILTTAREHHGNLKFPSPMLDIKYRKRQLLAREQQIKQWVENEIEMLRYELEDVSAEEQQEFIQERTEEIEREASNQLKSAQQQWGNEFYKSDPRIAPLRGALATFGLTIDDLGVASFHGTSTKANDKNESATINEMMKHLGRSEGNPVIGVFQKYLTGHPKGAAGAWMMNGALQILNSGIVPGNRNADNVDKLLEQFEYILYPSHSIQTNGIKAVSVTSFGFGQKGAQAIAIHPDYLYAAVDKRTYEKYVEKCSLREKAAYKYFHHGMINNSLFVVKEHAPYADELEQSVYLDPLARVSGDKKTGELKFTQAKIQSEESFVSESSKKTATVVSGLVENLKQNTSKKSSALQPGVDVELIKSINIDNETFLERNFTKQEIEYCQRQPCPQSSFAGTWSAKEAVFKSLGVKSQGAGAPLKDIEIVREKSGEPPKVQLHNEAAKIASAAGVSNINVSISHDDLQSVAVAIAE
T1 sequence (Q6CWN6 1-2047 partner): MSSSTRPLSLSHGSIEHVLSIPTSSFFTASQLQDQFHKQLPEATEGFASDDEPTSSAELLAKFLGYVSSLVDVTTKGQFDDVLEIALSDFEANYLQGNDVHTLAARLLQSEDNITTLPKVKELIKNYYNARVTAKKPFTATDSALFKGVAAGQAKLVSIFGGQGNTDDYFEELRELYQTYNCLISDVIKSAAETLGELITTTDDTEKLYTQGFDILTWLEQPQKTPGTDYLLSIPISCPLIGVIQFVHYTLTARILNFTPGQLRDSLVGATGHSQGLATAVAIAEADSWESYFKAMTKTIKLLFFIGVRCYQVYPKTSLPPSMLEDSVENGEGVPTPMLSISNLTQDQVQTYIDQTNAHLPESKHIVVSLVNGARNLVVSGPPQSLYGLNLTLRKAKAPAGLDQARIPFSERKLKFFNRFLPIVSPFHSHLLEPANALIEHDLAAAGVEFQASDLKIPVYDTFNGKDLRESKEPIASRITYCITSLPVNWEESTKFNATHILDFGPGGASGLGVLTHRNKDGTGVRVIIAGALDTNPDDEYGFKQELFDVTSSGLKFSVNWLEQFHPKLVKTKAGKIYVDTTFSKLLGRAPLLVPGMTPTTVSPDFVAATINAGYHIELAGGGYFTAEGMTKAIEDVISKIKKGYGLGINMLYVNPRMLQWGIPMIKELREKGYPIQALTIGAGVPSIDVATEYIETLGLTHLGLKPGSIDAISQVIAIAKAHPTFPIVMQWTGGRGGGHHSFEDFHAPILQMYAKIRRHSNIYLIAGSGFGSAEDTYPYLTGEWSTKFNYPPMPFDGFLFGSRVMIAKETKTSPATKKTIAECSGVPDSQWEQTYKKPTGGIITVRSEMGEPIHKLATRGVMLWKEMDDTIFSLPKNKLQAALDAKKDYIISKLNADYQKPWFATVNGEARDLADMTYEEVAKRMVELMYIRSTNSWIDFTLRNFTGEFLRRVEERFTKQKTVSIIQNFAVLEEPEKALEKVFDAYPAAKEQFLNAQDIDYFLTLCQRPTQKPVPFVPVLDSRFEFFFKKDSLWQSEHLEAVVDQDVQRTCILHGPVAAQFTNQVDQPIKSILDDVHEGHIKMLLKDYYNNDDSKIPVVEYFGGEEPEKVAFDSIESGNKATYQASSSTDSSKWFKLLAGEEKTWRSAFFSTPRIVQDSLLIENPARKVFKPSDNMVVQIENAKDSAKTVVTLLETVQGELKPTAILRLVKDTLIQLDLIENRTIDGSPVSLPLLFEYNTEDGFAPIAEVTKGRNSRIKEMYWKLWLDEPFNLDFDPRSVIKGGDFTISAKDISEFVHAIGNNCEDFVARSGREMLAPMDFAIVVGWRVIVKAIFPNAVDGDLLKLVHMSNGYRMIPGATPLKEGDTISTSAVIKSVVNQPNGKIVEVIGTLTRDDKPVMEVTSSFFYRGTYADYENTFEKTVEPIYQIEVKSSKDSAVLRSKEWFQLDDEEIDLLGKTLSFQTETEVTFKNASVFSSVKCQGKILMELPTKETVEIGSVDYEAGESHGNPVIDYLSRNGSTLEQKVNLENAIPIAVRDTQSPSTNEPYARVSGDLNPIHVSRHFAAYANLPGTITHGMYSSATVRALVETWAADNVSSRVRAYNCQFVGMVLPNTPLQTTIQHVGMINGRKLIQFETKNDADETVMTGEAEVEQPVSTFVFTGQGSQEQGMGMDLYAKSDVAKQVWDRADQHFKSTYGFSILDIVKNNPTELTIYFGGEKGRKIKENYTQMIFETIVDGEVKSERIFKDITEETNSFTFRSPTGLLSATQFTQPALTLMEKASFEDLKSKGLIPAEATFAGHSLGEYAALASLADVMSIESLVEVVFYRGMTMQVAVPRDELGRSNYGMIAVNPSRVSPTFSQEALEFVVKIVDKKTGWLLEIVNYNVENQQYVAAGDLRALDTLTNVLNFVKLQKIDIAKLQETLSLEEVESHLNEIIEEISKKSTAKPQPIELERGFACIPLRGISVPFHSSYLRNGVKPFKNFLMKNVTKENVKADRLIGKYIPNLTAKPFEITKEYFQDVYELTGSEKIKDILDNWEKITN
Experimental: (§1) In these examples, the 4-haloacetoacetic acid ester-reducing activity of the enzyme of this invention was determined by allowing it to react in a reaction system containing 50 mM potassium phosphate buffer (pH 6.5), 0.2 mM NADPH, 20 mM ethyl 4-chloroacetoacetate, and the enzyme at 30° C. and measuring the decrease in the absorbance at 340 nm in proportion to the decrease of NADPH. One unit of the enzyme was defined as the amount of the enzyme to catalyze a decrease of 1 μmol of NADPH per min. Protein was quantitated by the pigment binding method using a protein assay kit manufactured by BioRad.

[2] = target: T1, ethyl 4-chloroacetoacetate reductase; test: as above; conditions: substrate 20 mM, coenzyme NAD; ethyl 4-chloroacetoacetate-reducing activity = 100%
[3] = target: T1, ethyl 4-chloroacetoacetate reductase; test: Effects of various inhibitors on the ethyl 4-chloroacetoacetate-reducing activity
Experimental: as §1
After the enzyme obtained in Example 1 was treated with various reagents at 30° C. for 10 min, it was assayed for the remaining activity to reduce ethyl 4chloroacetoacetate.

[4] = inhibitor 1 mM, 30° C., 10 min, standard conditions = 100%
[5] = inhibitor 1 mM, 30° C., 10 min, standard conditions = 100%, read-out: Residual activity

Q: Which Relative activity ([1]; substrate 20 mM) does the source give for `CCOC(=O)C(=O)CCc1ccccc1` here?
A: 0%

Q: For `CCOC(=O)C[C@H](O)CCl`, which Relative activity [2] is on record?
A: 0%

Q: For `CC(=O)C(C)=O` [2,3-Butanedione], which Relative activity ([1]; substrate 20 mM) is on record?
A: 4.2%

Q: With `CCC(=O)C(C)=O` [2,3-Pentanedione] as the compound, how does the “Reducing activity on substrate (in words)” value [1] read?
A: high activity

Q: What about the Relative activity ([1]; substrate 20 mM) of the same compound?
A: 44.2%

Q: With `CC(=O)CC(C)=O` [2,4-Pentanedione] as the compound, how does the Relative activity ([1]; substrate 20 mM) read?
A: 0%

Q: `O=C1CN2CCC1CC2` [3-Quinuclidinone] was tested. Which Relative activity ([1]; substrate 20 mM) did it give?
A: 0.8%

Q: `CC(=O)CCO` [4-Hydroxy-2-butanone] was tested. Which Relative activity ([1]; substrate 20 mM) did it give?
A: 0%

Q: With `CC(=O)c1ccccc1` [Acetophenone] as the compound, how does the Relative activity ([1]; substrate 20 mM) read?
A: 0%

Q: `CC(=O)COC(C)=O` [Acetoxy-2-propanone] was tested. Which Relative activity ([1]; substrate 20 mM) did it give?
A: 0%

Q: Which Relative activity ([1]; substrate 1 mM) does the source give for `O=C(O)C(=O)CCc1ccccc1` [Benzylpyruvic acid] here?
A: 0%

Q: With `C/C=C/C(=O)O` [Chlotonic acid] as the compound, how does the remaining activity at 50000 µM ([3]; inhibitor 50 mM, 30° C., 10 min, standard conditions = 100%, read-out: Residual activity) read?
A: 87.7%

Q: What does the source list for `O=S(=O)([O-])[O-].[Cu+2]` [Copper sulfate]?
A: Inhibition of the enzyme (in words) [3]: inhibited; Residual activity [3, 4]: 0.0%; Inhibition of the enzyme (in words) ([3]; listed as cupric sulfate): significantly inhibited

Q: `CCC1(CC)C(=O)NC(=O)NC1=O` [Diethylbarbituric acid] was tested. Which remaining activity at 1000 µM [3, 5] did it give?
A: 82.5%

Q: Which Relative activity ([1]; substrate 20 mM) does the source give for `CCOC(=O)CC(=O)CCl` [Ethyl 4-chloroacetoacetate] here?
A: 100%

Q: What about the Relative activity ([1]; substrate 20 mM, listed as Ethyl 4-chloroacetoaetate) of the same compound?
A: 0%

Q: With `CCOC(=O)C[C@@H](O)CCl` [Ethyl (R)-4-chloro-3-hydroxy-acetate] as the compound, how does the Relative activity [2] read?
A: 0%

Q: With `CCOC(=O)CC(C)=O` [Ethyl acetoacetate] as the compound, how does the Relative activity ([1]; substrate 20 mM) read?
A: 0%

Q: How did the remaining activity at 1000 µM ([3]; read-out: Residual activity) turn out when `O=C(O)CN(CCN(CC(=O)O)CC(=O)O)CC(=O)O` [Ethylenediaminetetraacetic acid] was run?
A: 98.4%

Q: For `NC(=O)CI` [Iodoacetamide], which remaining activity at 1000 µM [3, 5] is on record?
A: 53.9%

Q: Which Relative activity ([1]; substrate 0.4 mM) does the source give for `O=C1Nc2ccccc2C1=O` [Isatine] here?
A: 0%

Q: Which results are given for `[Cl][Hg][Cl]` [Mercuric chloride]?
A: Inhibition of the enzyme (in words) [3]: significantly inhibited; Residual activity ([3]; inhibitor 0.01 mM, 30° C., 10 min, standard conditions = 100%): 0.0%

Q: For `COC(=O)CC(=O)CCl` [Methyl 4-chloroacetoacetate], which “Reducing activity on substrate (in words)” value [1] is on record?
A: high activity

Q: What about the Relative activity ([1]; substrate 20 mM) of the same compound?
A: 66.3%

Q: For `COC(=O)CC(C)=O` [Methyl acetoacetate], which Relative activity ([1]; substrate 20 mM) is on record?
A: 0%

Q: For `C=CC(C)=O` [Methyl vinyl ketone], which “Inhibition of the enzyme (in words)” value [3] is on record?
A: inhibited

Q: What about the remaining activity at 10000 µM ([3]; inhibitor 10 mM, 30° C., 10 min, standard conditions = 100%, read-out: Residual activity) of the same compound?
A: 26.3%

Q: `CC(=O)C=O` [Methylglyoxal] was tested. Which Relative activity ([1]; substrate 20 mM) did it give?
A: 1.8%

Q: For `CCN1C(=O)C=CC1=O` [N-ethylmaleimide], which “Inhibition of the enzyme (in words)” value [3] is on record?
A: inhibited

Q: And the remaining activity at 1000 µM [3, 5]?
A: 20.1%

Q: For `O=CC(=O)c1ccccc1` [Phenylglyoxal], which Relative activity ([1]; substrate 0.5 mM) is on record?
A: 0%

Q: `O=S(=O)(F)Cc1ccccc1` [Phenylmethanesulfonyl fluoride] was tested. Which Residual activity [3, 4] did it give?
A: 89.4%

Q: With `CCC=O` [Propionaldehyde] as the compound, how does the Relative activity ([1]; substrate 20 mM) read?
A: 0%

Q: How did the Relative activity ([1]; substrate 20 mM) turn out when `O=Cc1cccnc1` [Pyridine-3-aldehyde] was run?
A: 0%

Q: For `O=c1c(O)c(-c2ccc(O)c(O)c2)oc2cc(O)cc(O)c12` [Quercetin], which remaining activity at 100 µM ([3]; inhibitor 0.1 mM, 30° C., 10 min, standard conditions = 100%, read-out: Residual activity) is on record?
A: 68.1%

Q: How did the Relative activity ([1]; substrate 20 mM) turn out when `O=C[C@H](O)[C@@H](O)[C@H](O)CO` [Xylose] was run?
A: 0%

Q: For `O=S(=O)([O-])[O-].[Zn+2]` [Zinc sulfate], which “Inhibition of the enzyme (in words)” value [3] is on record?
A: inhibited

Q: And the Residual activity [3, 4]?
A: 12.2%

Q: How did the Relative activity ([1]; substrate 0.2 mM) turn out when `O=Cc1cccc([N+](=O)[O-])c1` [m-Nitrobenzaldehyde] was run?
A: 0.4%

Q: `O=Cc1ccccc1[N+](=O)[O-]` [o-Nitrobenzaldehyde] was tested. Which Relative activity ([1]; substrate 0.2 mM) did it give?
A: 0%

Q: How did the remaining activity at 1000 µM [3, 5] turn out when `c1cnc2c(c1)ccc1cccnc12` [o-Phenanthroline] was run?
A: 88.3%

Q: For `O=C(O)c1cc[c]([Hg][Cl])cc1` [p-Chloromercuribenzoic acid], which “Inhibition of the enzyme (in words)” value [3] is on record?
A: completely inhibited

Q: And the Residual activity ([3]; inhibitor 0.05 mM, 30° C., 10 min, standard conditions = 100%)?
A: 0.0%

Q: What about the “Inhibition of the enzyme (in words)” value ([3]; listed as p-chloromercuricbenzoic acid) of the same compound?
A: significantly inhibited

Q: For `O=Cc1ccc([N+](=O)[O-])cc1` [p-Nitrobenzaldehyde], which Relative activity ([1]; substrate 0.2 mM) is on record?
A: 0%
